PMC11405510 (Scientific Reports, 2024)

Target: T1, Ha006a (Helicoverpa armigera, UniProt D5G3E0)
T1 sequence (D5G3E0 25-548): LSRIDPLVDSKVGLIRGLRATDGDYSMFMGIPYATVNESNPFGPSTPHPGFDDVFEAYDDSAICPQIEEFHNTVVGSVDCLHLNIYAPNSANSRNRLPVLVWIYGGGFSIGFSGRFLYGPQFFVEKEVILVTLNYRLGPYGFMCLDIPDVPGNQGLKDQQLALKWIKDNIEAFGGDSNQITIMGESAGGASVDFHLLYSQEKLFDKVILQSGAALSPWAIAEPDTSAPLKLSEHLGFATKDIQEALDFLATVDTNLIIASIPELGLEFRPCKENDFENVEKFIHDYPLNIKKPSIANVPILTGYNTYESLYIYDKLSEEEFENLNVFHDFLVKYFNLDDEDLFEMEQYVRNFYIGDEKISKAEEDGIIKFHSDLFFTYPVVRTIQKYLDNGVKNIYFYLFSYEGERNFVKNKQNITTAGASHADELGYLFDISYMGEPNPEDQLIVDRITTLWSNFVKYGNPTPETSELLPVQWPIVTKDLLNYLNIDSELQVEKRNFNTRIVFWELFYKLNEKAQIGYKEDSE
Assay: Differential scanning calorimetry of Ha006a-ligand complexes
Type: binding
Conditions: DSC; for Tm1 (°C) ± SE: first thermal transition, 50 μM protein, non-two-state fit; for Tm2 (°C) ± SE: second thermal transition; for Tm3 (°C) ± SE: third thermal transition

SMILES	Tm1 (°C) ± SE	ΔH (molar heat enthalpy) (first transition (Tm1))	ΔHv (van't Hoff enthalpy) (first transition (Tm1))	ΔHv/ΔH (first transition (Tm1))	Tm2 (°C) ± SE	ΔH (molar heat enthalpy) (second transition (Tm2))	ΔHv (van't Hoff enthalpy) (second transition (Tm2))	ΔHv/ΔH (second transition (Tm2))	Tm3 (°C) ± SE	ΔH (molar heat enthalpy) (third transition (Tm3))	ΔHv (van't Hoff enthalpy) (third transition (Tm3))	ΔHv/ΔH (third transition (Tm3))
COc1cc(OC)c2c(=O)cc(-c3ccc(OC)c(OC)c3)oc2c1 [3′,4′,5,7-Tetramethoxyflavone]	Tm1 51.52 ± 0.25 °C	584000 kcal/mol	34000 kcal/mol	0.06	Tm2 79.01 ± 0.98 °C	957000 kcal/mol	35300 kcal/mol	0.04	Tm3 91.76 ± 0.43 °C	358000 kcal/mol	58800 kcal/mol	0.16
O=C(/C=C/C=C/c1ccc2c(c1)OCO2)N1CCCCC1 [Piperine]	Tm1 51.30 ± 0.32 °C	218000 kcal/mol	43300 kcal/mol	0.20	Tm2 65.47 ± 0.33 °C	209000 kcal/mol	40800 kcal/mol	0.20	Tm3 80.80 ± 0.36 °C	44600 kcal/mol	40900 kcal/mol	0.92
CN1CCc2cc3c(cc2C(=O)Cc2ccc4c(c2C1)OCO4)OCO3 [Protopine]	Tm1 49.93 ± 0.55 °C	630000 kcal/mol	43200 kcal/mol	0.07	Tm2 66.76 ± 0.33 °C	1.87e+06 kcal/mol	31500 kcal/mol	0.02	Tm3 86.29 ± 0.67 °C	783000 kcal/mol	40100 kcal/mol	0.05
O=P(Oc1ccccc1)(Oc1ccccc1)Oc1ccccc1 [Triphenyl phosphate, reference compound]	Tm1 51.32 ± 1.70 °C	457000 kcal/mol	35900 kcal/mol	0.08	Tm2 67.66 ± 0.26 °C	1.31e+06 kcal/mol	66800 kcal/mol	0.05	Tm3 78.21 ± 0.44 °C	472000 kcal/mol	89500 kcal/mol	0.19
